According to ChEMBL document CHEMBL5303304, “EUbOPEN Chemogenomics Library - IncuCyte” (2023):

Columns and labels:
Assay type in all cases: toxicity, cell-based
[1] = system: HEK-293T; test: Incucyte cell viability with HEK293T; conditions: human, 10 µM, compound concentration 10 uM
[2] = system: U2OS; test: Incucyte cell viability with U2OS; conditions: human, 10 µM, compound concentration 10 uM
[3] = system: Fibroblast; test: Incucyte cell viability with human fibroblast; conditions: 10 µM, compound concentration 10 uM
Note: unitless GR value; below 1 slowed growth and below 0 cell loss.

Row | SMILES | Growth Rate ([1]; 6 h, replicate number 1) | Growth Rate ([1]; 6 h, replicate number 2) | Growth Rate ([1]; 12 h, replicate number 1) | Growth Rate ([1]; 12 h, replicate number 2) | Growth Rate ([1]; 18 h, replicate number 1) | Growth Rate ([1]; 18 h, replicate number 2) | Growth Rate ([1]; 24 h, replicate number 1) | Growth Rate ([1]; 24 h, replicate number 2) | Growth Rate ([2]; 0 h, replicate number 2) | Growth Rate ([2]; 12 h, replicate number 2) | Growth Rate ([2]; 18 h, replicate number 2) | Growth Rate ([3]; 0 h, replicate number 1) | Growth Rate ([3]; 24 h, replicate number 1) | Growth Rate ([2]; 6 h, replicate number 1) | Growth Rate ([2]; 12 h, replicate number 1) | Growth Rate ([2]; 24 h, replicate number 1) | Growth Rate ([3]; 6 h, replicate number 2) | Growth Rate ([3]; 12 h, replicate number 2) | Growth Rate ([3]; 18 h, replicate number 2) | Growth Rate ([3]; 24 h, replicate number 2) | further results
1 | CC(C)(C)c1ccc2c(c1)CC[C@H]2NC(=O)Nc1cccc2[nH]ncc12 [ABT-102] | 0.75 | 0.6 | 0.26 | 0.71 | 0.39 | 0.54 | 0.22 | 0.48 | -0.93 | 0.84 | 0.91 | 0.1 | 0.79 | – | – | – | – | – | – | – | Growth Rate ([1]; 0 h, replicate number 2): 1; Growth Rate ([2]; 24 h, replicate number 2): 0.9; Growth Rate ([3]; 0 h, replicate number 2): 0.41; Growth Rate ([3]; 12 h, replicate number 1): -0.95
2 | CC(=O)Oc1ccc2c(c1)[C@@]1(C)CCC[C@](C)(C(=O)OC(=O)[C@@]3(C)CCC[C@]4(C)c5cc(OC(C)=O)ccc5CC[C@@H]34)[C@@H]1CC2 [ACETYL PODOCARPIC ACID ANHYDRIDE] | – | 0.34 | – | 0.36 | 0.8 | 0.46 | – | 0.57 | 0.76 | 0.76 | 0.96 | 0.14 | 0.96 | 0.6 | 0.57 | 0.84 | 0.4 | 0.33 | 0.61 | 0.62 | Growth Rate ([1]; 0 h, replicate number 1): 0.44; Growth Rate ([1]; 0 h, replicate number 2): 0.84; Growth Rate ([2]; 0 h, replicate number 1): -0.55; Growth Rate ([2]; 6 h, replicate number 2): 0.92; Growth Rate ([2]; 18 h, replicate number 1): 0.73; Growth Rate ([3]; 18 h, replicate number 1): 0.83
3 | N[C@H](C(=O)O)[C@@H]1CC(Cl)=NO1 [ACIVICIN] | – | 0.69 | 0.69 | 0.57 | 0.51 | 0.37 | 0.43 | 0.37 | – | – | – | -1 | 0.22 | – | 0.81 | 0.51 | -0.62 | 0.4 | 0.21 | 0.56 | Growth Rate ([1]; 0 h, replicate number 1): 0.17; Growth Rate ([2]; 18 h, replicate number 1): 0.99; Growth Rate ([3]; 6 h, replicate number 1): -0.24; Growth Rate ([3]; 12 h, replicate number 1): 0.08; Growth Rate ([3]; 18 h, replicate number 1): 0.11
4 | COc1ccc(NC(=O)[C@@H]2C[C@H](C)CC[C@H]2C(C)C)cc1 [ACOLTREMON] | – | – | – | – | – | – | – | – | -0.89 | – | – | 0.31 | – | -0.13 | 0.93 | 0.94 | -0.34 | 0.74 | 0.61 | 0.67 | Growth Rate ([1]; 0 h, replicate number 2): 0.02; Growth Rate ([3]; 18 h, replicate number 1): 0.98
5 | C=C(F)C(=O)N1CCN(c2nc(OC[C@@H]3CCCN3C)nc3c2CCN(c2cccc4cccc(Cl)c24)C3)C[C@@H]1CC#N [ADAGRASIB] | -0.26 | -0.86 | -0.28 | -0.57 | -0.25 | -0.46 | -0.21 | -0.38 | -0.94 | -0.11 | -0.27 | -1 | -0.3 | -0.94 | -0.94 | -0.76 | -0.86 | -0.18 | -0.27 | -0.22 | Growth Rate ([2]; 0 h, replicate number 1): -1; Growth Rate ([2]; 6 h, replicate number 2): 0.32; Growth Rate ([2]; 18 h, replicate number 1): -0.89; Growth Rate ([2]; 24 h, replicate number 2): -0.3; Growth Rate ([3]; 6 h, replicate number 1): -0.47; Growth Rate ([3]; 12 h, replicate number 1): -0.27; Growth Rate ([3]; 18 h, replicate number 1): -0.26
6 | CC/C(=C(\c1ccc(O)cc1)c1ccc(OCCN(C)C)cc1)c1ccccc1 [AFIMOXIFENE] | -0.92 | -0.67 | -0.87 | -0.46 | -0.68 | -0.33 | -0.63 | -0.26 | -0.96 | – | – | 0.22 | – | – | – | 0.9 | 0.4 | 0.3 | 0.13 | 0.18 | Growth Rate ([3]; 6 h, replicate number 1): -0.74
7 | CCc1cc2c(cc1N1CCC(N3CCOCC3)CC1)C(C)(C)c1[nH]c3cc(C#N)ccc3c1C2=O [ALECTINIB] | 0.56 | 0.59 | 0.83 | 0.86 | 0.95 | – | – | – | – | 0.78 | 1 | – | – | 0.77 | – | 0.91 | 0.58 | – | – | 0.89 | Growth Rate ([2]; 6 h, replicate number 2): 0.78; Growth Rate ([2]; 24 h, replicate number 2): 0.94
8 | Cc1cc([N+](=O)[O-])c(NS(=O)(=O)c2cccc(C(=O)O)c2)cc1-c1cccnc1 [ALOFANIB] | – | 0.57 | 0.91 | 0.68 | 0.65 | 0.78 | 0.75 | 0.79 | 0.06 | 0.55 | 0.64 | – | 0.8 | 0.68 | 0.39 | – | 0.26 | 0.74 | 0.99 | 0.92 | Growth Rate ([1]; 0 h, replicate number 1): -0.38; Growth Rate ([2]; 0 h, replicate number 1): -0.35; Growth Rate ([2]; 6 h, replicate number 2): 0.28; Growth Rate ([2]; 18 h, replicate number 1): 0.93; Growth Rate ([2]; 24 h, replicate number 2): 0.6; Growth Rate ([3]; 0 h, replicate number 2): 0.25; Growth Rate ([3]; 6 h, replicate number 1): 0.27; Growth Rate ([3]; 12 h, replicate number 1): 0.56; Growth Rate ([3]; 18 h, replicate number 1): 0.5
9 | O=c1cc(-c2ccccc2)oc2c1ccc1ccccc12 [ALPHA-NAPHTHOFLAVONE] | 0.31 | 0.53 | – | 0.81 | 0.95 | 0.8 | – | 0.88 | -0.73 | 0.63 | 0.66 | 0.97 | 0.65 | -0.07 | 0.67 | – | – | – | – | – | Growth Rate ([2]; 6 h, replicate number 2): 0.41; Growth Rate ([2]; 18 h, replicate number 1): 0.92
10 | CCCCC[C@H](O)/C=C/[C@H]1[C@H](O)CC(=O)[C@@H]1CCCCCCC(=O)O [ALPROSTADIL] | 0.47 | – | 0.82 | 0.97 | – | 0.98 | – | – | 0.57 | 0.76 | 0.76 | -1 | – | 0.87 | 0.94 | 0.93 | – | 0.37 | 0.79 | 0.9 | Growth Rate ([1]; 0 h, replicate number 1): -0.3; Growth Rate ([1]; 0 h, replicate number 2): 0.55; Growth Rate ([2]; 24 h, replicate number 2): 0.92
